Test results reported in ChEMBL document CHEMBL5653615 (J Biol Chem, 2013).
Values belong to the molecule of their own block, whether it stands above or below them. The source made the active and inactive calls. No cut-off for these calls is given here.

Tests used:
[1] = biological target: MAP/microtubule affinity-regulating kinase 3 (Homo sapiens) (UniProt P27448); experiment: Inhibition of human MARK3 at 18.6 nM by HotSpot assay relative to control
[2] = biological target: Casein kinase I isoform delta (Homo sapiens) (UniProt P48730); experiment: Inhibition of human CK1d at 18.6 nM by HotSpot assay relative to control
[3] = biological target: T1, TGF-beta receptor type-1 (Homo sapiens) (UniProt P36897); experiment: Inhibition of human ALK5 at 18.6 nM by HotSpot assay relative to control
T1 sequence (whole entry): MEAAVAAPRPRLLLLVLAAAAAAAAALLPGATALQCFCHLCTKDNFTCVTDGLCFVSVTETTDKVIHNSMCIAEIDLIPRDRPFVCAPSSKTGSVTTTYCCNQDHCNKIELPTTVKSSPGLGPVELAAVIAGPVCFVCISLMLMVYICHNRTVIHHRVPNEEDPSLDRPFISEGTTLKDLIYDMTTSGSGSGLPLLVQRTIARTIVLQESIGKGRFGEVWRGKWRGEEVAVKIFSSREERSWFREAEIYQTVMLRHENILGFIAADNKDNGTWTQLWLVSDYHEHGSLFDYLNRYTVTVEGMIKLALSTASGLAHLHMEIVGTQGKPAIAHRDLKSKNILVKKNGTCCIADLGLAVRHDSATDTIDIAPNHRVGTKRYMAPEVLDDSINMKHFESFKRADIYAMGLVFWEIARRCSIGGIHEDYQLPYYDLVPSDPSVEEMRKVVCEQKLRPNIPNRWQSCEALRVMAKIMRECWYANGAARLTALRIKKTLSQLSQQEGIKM

[4] = biological target: Serine/threonine-protein kinase 33 (Homo sapiens) (UniProt Q9BYT3); experiment: Inhibition of human STK33 at 18.6 nM by HotSpot assay relative to control
[5] = biological target: Serine/threonine-protein kinase PAK 5 (Homo sapiens) (UniProt Q9P286); experiment: Inhibition of human PAK5 at 18.6 nM by HotSpot assay relative to control
[6] = biological target: T2, Activin receptor type-1B (Homo sapiens) (UniProt P36896); experiment: Inhibition of human ALK4 at 18.6 nM by HotSpot assay relative to control
T2 sequence (whole entry): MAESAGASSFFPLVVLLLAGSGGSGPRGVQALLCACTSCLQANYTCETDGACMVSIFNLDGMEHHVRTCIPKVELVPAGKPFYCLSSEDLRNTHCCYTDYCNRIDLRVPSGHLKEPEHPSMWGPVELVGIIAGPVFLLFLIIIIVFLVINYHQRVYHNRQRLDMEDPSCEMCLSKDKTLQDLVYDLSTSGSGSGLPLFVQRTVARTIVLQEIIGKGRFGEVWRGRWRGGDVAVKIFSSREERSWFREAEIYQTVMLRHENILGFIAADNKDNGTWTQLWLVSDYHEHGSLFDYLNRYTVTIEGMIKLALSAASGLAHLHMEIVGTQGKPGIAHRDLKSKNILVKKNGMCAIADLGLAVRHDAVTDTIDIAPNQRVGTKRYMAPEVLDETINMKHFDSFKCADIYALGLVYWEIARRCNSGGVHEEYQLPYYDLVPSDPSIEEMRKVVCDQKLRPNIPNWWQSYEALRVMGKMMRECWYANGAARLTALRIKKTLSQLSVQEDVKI

[7] = biological target: Mast/stem cell growth factor receptor Kit (Homo sapiens) (UniProt P10721); experiment: Inhibition of human c-Kit at 18.6 nM by HotSpot assay relative to control
[8] = biological target: Homeodomain-interacting protein kinase 2 (Homo sapiens) (UniProt Q9H2X6); experiment: Inhibition of human HIPK2 at 18.6 nM by HotSpot assay relative to control
[9] = biological target: Serine/threonine-protein kinase WNK3 (Homo sapiens) (UniProt Q9BYP7); experiment: Inhibition of human WNK3 at 1.82 nM by HotSpot assay relative to control
[10] = biological target: T3, cAMP-dependent protein kinase catalytic subunit PRKX (Homo sapiens) (UniProt P51817); experiment: Inhibition of human PRKX at 1.82 nM by HotSpot assay relative to control
T3 sequence (whole entry): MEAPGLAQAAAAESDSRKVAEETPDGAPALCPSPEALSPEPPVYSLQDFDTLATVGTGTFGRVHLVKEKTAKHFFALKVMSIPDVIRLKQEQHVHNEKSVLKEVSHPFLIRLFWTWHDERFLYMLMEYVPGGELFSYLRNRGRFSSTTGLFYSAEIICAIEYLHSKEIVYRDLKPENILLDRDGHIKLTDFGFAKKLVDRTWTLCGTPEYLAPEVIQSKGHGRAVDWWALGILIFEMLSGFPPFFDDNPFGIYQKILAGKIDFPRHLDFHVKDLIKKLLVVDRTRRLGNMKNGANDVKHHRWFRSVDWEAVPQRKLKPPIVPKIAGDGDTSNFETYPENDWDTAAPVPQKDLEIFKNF

[11] = biological target: Tyrosine-protein kinase Fyn (Homo sapiens) (UniProt P06241); experiment: Inhibition of human FYN at 1.82 nM by HotSpot assay relative to control
[12] = biological target: Serine/threonine-protein kinase PLK2 (Homo sapiens) (UniProt Q9NYY3); experiment: Inhibition of human PLK2 at 1.82 nM by HotSpot assay relative to control
[13] = biological target: Tyrosine-protein kinase JAK1 (Homo sapiens) (UniProt P23458); experiment: Inhibition of human JAK1 at 1.82 nM by HotSpot assay relative to control
[14] = biological target: T4, Rhodopsin kinase GRK7 (Homo sapiens) (UniProt Q8WTQ7); experiment: Inhibition of human GRK7 at 1.82 nM by HotSpot assay relative to control
T4 sequence (whole entry): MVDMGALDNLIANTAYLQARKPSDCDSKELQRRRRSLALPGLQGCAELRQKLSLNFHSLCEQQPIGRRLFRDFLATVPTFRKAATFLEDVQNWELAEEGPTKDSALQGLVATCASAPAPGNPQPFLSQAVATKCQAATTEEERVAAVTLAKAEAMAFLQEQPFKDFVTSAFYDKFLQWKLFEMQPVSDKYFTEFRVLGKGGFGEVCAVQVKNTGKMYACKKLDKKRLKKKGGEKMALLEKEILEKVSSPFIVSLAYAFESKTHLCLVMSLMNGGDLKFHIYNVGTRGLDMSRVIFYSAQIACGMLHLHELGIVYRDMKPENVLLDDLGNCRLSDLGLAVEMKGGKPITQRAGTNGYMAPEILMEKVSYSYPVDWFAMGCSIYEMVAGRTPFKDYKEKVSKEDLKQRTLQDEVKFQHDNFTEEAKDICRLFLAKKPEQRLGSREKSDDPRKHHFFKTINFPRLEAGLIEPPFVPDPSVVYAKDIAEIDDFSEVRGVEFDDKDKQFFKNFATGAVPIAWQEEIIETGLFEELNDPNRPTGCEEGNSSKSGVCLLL

[15] = biological target: Insulin receptor (Homo sapiens) (UniProt P06213); experiment: Inhibition of wild-type human Insulin receptor autophosphorylation in CHO-K1 cell lysate at 10 uM for 30 mins on ice followed by insulin stimulation for 10 mins by Western blot analysis; assay type: subcellular; details: time 40.0 min
Insulin receptor (Homo sapiens), sequence (P06213 28-758 limits assumed): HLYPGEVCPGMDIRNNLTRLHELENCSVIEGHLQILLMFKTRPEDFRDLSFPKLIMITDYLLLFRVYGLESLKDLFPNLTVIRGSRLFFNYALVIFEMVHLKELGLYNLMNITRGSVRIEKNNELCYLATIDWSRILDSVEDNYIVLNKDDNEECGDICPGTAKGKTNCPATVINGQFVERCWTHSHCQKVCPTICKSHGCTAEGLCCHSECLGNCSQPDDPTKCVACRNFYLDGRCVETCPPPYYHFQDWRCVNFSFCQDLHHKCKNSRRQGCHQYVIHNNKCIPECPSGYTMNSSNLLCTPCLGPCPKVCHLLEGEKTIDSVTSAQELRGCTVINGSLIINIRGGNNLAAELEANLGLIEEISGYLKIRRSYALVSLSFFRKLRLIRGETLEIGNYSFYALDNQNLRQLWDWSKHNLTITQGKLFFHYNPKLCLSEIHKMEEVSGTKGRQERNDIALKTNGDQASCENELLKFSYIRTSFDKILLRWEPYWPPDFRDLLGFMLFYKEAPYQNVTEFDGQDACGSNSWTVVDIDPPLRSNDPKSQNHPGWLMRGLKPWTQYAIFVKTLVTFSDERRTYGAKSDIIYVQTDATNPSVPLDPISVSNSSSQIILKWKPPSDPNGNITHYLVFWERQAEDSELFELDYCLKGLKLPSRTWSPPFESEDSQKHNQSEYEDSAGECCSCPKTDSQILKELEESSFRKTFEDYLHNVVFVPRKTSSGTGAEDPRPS
Insulin receptor (Homo sapiens), sequence (P06213 763-1382 limits assumed): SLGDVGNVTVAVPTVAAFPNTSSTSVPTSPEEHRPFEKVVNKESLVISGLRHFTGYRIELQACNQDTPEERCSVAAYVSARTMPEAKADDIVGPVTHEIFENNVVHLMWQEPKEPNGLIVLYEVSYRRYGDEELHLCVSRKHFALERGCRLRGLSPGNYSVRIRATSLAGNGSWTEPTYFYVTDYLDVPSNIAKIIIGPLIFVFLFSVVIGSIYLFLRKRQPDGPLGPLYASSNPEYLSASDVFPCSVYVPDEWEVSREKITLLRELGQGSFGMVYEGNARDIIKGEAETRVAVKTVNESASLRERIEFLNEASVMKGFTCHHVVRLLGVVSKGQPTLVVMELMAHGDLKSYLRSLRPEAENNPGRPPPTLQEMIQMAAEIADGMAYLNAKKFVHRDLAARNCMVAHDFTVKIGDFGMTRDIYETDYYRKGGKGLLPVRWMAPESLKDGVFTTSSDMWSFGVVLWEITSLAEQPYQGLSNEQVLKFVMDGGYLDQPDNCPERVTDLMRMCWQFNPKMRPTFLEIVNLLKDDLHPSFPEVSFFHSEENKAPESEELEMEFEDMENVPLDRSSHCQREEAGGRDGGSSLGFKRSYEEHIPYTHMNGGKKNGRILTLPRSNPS

Tyrosine-protein kinase JAK1 (Homo sapiens), sequence (P23458 whole entry): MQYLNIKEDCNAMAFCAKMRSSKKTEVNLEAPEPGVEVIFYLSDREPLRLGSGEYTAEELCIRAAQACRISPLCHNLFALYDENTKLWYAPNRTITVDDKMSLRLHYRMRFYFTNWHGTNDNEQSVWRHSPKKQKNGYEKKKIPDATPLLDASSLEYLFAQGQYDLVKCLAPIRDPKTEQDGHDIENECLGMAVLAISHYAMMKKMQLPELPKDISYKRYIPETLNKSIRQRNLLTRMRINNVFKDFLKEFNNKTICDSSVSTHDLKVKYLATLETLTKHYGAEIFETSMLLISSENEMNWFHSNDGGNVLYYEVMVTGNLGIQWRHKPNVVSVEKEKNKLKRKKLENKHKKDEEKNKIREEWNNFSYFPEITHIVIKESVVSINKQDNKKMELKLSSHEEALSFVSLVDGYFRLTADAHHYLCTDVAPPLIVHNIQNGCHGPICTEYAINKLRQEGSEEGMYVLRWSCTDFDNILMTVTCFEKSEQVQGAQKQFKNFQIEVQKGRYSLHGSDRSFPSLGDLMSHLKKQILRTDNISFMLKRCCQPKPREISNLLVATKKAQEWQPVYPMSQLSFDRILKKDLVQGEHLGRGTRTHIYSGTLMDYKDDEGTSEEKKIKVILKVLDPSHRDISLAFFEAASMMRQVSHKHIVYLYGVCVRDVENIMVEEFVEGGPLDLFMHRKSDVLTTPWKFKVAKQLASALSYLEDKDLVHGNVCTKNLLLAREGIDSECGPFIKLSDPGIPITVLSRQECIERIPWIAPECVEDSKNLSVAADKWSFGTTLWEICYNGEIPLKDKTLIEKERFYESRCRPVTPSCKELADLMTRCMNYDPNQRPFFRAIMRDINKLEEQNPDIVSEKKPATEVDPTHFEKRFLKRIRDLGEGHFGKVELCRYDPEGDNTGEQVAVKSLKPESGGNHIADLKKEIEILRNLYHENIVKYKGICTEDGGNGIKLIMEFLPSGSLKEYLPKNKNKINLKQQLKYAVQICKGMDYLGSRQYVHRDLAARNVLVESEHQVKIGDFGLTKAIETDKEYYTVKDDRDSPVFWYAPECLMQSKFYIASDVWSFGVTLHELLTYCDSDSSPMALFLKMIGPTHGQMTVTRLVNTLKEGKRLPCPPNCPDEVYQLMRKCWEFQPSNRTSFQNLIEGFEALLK
Mast/stem cell growth factor receptor Kit (Homo sapiens), sequence (P10721 whole entry): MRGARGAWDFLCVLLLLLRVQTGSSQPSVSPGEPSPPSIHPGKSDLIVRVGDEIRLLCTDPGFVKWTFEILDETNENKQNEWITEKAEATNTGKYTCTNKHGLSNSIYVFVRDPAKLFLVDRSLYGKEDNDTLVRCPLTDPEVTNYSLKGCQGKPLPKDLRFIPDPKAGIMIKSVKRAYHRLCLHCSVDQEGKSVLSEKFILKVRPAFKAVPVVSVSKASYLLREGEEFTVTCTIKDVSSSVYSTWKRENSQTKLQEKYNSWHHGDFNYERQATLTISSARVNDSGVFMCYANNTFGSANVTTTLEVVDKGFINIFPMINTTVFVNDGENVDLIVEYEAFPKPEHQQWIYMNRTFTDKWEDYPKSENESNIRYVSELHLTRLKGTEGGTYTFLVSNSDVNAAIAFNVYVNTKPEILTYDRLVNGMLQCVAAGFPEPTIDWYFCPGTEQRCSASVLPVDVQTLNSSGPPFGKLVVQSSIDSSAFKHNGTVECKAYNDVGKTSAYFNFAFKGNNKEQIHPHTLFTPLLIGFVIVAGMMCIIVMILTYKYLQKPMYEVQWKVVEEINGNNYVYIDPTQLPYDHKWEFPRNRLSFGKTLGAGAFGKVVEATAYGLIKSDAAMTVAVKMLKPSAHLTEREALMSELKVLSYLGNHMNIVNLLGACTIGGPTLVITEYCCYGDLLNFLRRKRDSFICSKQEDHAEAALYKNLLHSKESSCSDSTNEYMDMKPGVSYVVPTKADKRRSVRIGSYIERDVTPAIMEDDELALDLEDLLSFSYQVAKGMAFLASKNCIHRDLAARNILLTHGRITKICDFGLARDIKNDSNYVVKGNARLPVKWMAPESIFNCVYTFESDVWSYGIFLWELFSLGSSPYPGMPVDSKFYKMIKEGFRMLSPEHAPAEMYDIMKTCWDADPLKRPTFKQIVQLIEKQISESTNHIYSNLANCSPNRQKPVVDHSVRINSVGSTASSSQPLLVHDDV
Homeodomain-interacting protein kinase 2 (Homo sapiens), sequence (Q9H2X6 whole entry, looked up): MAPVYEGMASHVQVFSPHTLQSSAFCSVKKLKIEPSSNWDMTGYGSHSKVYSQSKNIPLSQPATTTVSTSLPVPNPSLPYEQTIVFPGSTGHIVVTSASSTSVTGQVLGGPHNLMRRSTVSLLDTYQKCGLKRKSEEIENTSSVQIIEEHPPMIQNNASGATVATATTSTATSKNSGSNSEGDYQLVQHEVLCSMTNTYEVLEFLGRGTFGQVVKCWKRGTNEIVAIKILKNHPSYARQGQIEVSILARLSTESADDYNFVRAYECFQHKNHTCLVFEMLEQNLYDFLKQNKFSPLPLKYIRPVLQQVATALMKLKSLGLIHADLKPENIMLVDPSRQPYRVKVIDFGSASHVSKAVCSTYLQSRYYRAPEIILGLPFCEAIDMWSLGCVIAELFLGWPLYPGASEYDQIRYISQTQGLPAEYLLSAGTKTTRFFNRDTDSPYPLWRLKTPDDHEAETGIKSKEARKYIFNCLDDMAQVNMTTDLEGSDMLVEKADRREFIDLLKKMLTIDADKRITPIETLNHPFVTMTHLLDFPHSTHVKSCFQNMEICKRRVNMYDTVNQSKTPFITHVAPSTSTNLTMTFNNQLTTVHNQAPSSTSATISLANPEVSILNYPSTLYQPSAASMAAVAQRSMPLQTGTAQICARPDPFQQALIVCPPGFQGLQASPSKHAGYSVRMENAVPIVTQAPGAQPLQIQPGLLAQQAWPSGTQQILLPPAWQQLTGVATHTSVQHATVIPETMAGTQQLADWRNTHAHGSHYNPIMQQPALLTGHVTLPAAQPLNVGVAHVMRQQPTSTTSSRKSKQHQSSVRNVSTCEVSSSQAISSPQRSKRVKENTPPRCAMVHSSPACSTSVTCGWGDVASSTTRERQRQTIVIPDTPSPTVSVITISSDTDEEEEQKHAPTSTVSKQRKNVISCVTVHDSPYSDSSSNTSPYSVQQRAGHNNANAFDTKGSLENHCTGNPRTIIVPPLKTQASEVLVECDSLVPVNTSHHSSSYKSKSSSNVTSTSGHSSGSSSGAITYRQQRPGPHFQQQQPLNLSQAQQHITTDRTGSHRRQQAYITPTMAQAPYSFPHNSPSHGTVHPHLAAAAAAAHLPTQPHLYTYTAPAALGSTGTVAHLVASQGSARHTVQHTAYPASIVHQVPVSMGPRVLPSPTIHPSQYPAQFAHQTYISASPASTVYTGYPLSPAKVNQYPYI
Casein kinase I isoform delta (Homo sapiens), sequence (P48730 whole entry, looked up, canonical isoform): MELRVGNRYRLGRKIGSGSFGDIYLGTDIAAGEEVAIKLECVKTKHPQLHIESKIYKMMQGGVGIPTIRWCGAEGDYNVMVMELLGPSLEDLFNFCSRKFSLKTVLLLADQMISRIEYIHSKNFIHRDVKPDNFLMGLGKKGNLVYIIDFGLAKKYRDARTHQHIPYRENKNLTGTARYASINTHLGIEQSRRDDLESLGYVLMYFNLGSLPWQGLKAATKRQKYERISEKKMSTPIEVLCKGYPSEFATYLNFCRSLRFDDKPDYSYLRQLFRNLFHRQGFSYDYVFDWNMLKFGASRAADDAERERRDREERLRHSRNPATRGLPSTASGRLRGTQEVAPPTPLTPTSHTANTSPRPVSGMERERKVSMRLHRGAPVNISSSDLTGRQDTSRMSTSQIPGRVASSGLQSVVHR

- inhibition [1]: 2.43%
- inhibition [2]: -2.47%
- inhibition [3]: 2.47%
- inhibition [4]: -0.08%
- inhibition [5]: -1.6%
- inhibition [6]: -0.44%
- inhibition [7]: 2.65%
- inhibition [8]: -0.98%
Structure (SMILES): C[C@]1(O)C[C@@H](c2nc(-c3ccc4ccc(-c5ccccc5)nc4c3)c3c(N)nccn32)C1

- inhibition [9]: 3.37%
- inhibition [10]: 0.19%
- inhibition [11]: -6.23%
- inhibition [12]: 1.2%
- inhibition [13]: -5.65%
- inhibition [14]: 4.43%
Structure (SMILES): C[C@@]1(C(=O)Nc2ccc(F)nc2)CCCN1c1nc(Nc2cc(C3CC3)n[nH]2)c2cccn2n1

Structure (SMILES): Oc1n[nH]c2nnc(-c3c(-c4ccccc4)nn4ccccc34)cc12
- inhibition [15]: Active
